# Reference: ChEMBL document CHEMBL1955803, “Preclinical in vivo evaluation of efficacy, pharmacokinetics, and pharmacodynamics of a novel MEK1/2 kinase inhibitor RO5068760 in multiple tumor models” (Mol Cancer Ther, 2010)
# The source made the active and inactive calls. The calls are words filed in the database; no cut-off is given here.
# Key:
# Mus musculus [1] = assay: Toxicity in human H460 cells expressing K-Ras Q61H mutant xenografted nude mouse assessed as gross signs of adverse effect at 25 to 200 mg/kg, po bid for 3 weeks; type: organism-based; design: dose 25-200 mg/kg, route oral; conditions: in vivo, 504 h
# HT-29 [2] = assay: Induction of apoptosis in human HT-29 cells; type: functional, cell-based
# [3] = Plasma concentration in human LOX cells expressing B-Raf V600E mutant xenografted nude mouse at 100 mg/kg, po after 12 hrs; type: ADME, organism-based; design: dose 100 mg/kg, route oral
# [4] = Drug level in human HT-29 cells expressing B-Raf V600E mutant xenografted nude mouse tumor at 50 mg/kg, po after 8 hrs; type: ADME, organism-based, Neoplasm; design: dose 50 mg/kg, route oral; conditions: read-out: Drug uptake
# [5] = molecular target: T1, Dual specificity mitogen-activated protein kinase kinase 1 (Homo sapiens, UniProt Q02750); assay: Inhibition of MEK1
# [6] = AUC (0 to 12 hrs) in human LOX cells expressing B-Raf V600E mutant xenografted nude mouse at 25 mg/kg, po bid; type: ADME, organism-based; design: time < 12 hr, dose 25 mg/kg, route oral; conditions: in vivo
# Mus musculus [7] = assay: Inhibition of MEK-mediated ERK phosphorylation in tumor of human HT-29 cells expressing B-Raf V600E mutant xenografted nude mouse at 50 mg/kg, po after 4 hrs by Western blot analysis relative to control; type: functional; conditions: HT-29, 4 h
# MIA PaCa-2 [8] = assay: Antitumor activity against human MIAPaCa2 cells expressing K-Ras G12C mutant xenografted in nude mouse assessed as tumor growth inhibition at 200 mg/kg, po bid; type: functional; conditions: read-out: GI
# [9] = Plasma concentration in human LOX cells expressing B-Raf V600E mutant xenografted nude mouse at 100 mg/kg, po after 2 hrs; type: ADME, organism-based; design: dose 100 mg/kg, route oral
# [10] = AUC (0 to 12 hrs) in human H460 cells expressing K-Ras Q61H mutant xenografted nude mouse at 25 mg/kg, po bid; type: ADME, organism-based; design: time < 12 hr, dose 25 mg/kg, route oral; conditions: in vivo
# HT-29 [11] = assay: Cell cycle arrest in human HT-29 cells assessed as accumulation at G1 phase; type: functional, cell-based
# Mus musculus [12] = assay: Inhibition of MEK-mediated ERK phosphorylation in po dosed human LOX cells expressing B-Raf V600E mutant xenografted nude mouse tumor by Western blot analysis; type: functional, organism-based
# [13] = Cmax in human LOX cells expressing B-Raf V600E mutant xenografted nude mouse at 12.5 mg/kg, po bid; type: ADME, organism-based; design: dose 12.5 mg/kg, route oral; conditions: in vivo
# [14] = molecular target: T2, Dual specificity mitogen-activated protein kinase kinase; MEK1/2 (Homo sapiens) (UniProt P36507+Q02750); conditions: LOX, 2 to 10 uM
# Description: Inhibition of MEK1/2 phosphorylation in human LOX cells at 2 to 10 uM by Western blot analysis
# MIA PaCa-2 [15] = assay: Growth inhibition of human MIAPaCa2 cells expressing K-Ras […] mutant by MTT assay; type: functional, cell-based
# [16] = Cell cycle arrest in human LOX cells assessed as accumulation at G1 phase; type: functional, cell-based
# [17] = Growth inhibition of human LOX cells expressing B-Raf V600E mutant by MTT assay; type: functional, cell-based
# NCI-H460 [18] = assay: Antitumor activity against human H460 cells expressing K-Ras Q61H mutant xenografted in nude mouse assessed as tumor growth inhibition at 500 mg/kg, po administered weekly once; type: functional; conditions: read-out: GI
# [19] = molecular target: T2, Dual specificity mitogen-activated protein kinase kinase; MEK1/2 (Homo sapiens); conditions: HT-29, 2 to 10 uM
# Description: Inhibition of MEK1/2 in human HT-29 cells assessed as down regulation of CDK4/cyclin D1 expression at 2 to 10 uM by Western blot analysis
# Mus musculus [20] = assay: Average drug concentration in human MIAPaCa2 cells expressing K-Ras G12C mutant xenografted nude mouse plasma at 100 mg/kg, po bid; type: ADME, organism-based, MIA PaCa-2; design: dose 100 mg/kg, route oral; conditions: in vivo
# [21] = Drug level in human LOX cells expressing B-Raf V600E mutant xenografted nude mouse tumor at 100 mg/kg, po after 12 hrs; type: ADME, organism-based, Neoplasm; design: dose 100 mg/kg, route oral; conditions: read-out: Drug uptake
# Mus musculus [22] = assay: Toxicity in human MIAPaCa2 cells expressing K-Ras G12C mutant xenografted nude mouse assessed as gross signs of adverse effect at 25 to 200 mg/kg, po bid for 3 weeks; type: organism-based, MIA PaCa-2; design: dose 25-200 mg/kg, route oral; conditions: in vivo, 504 h
# [23] = Drug level in human HT-29 cells expressing B-Raf V600E mutant xenografted nude mouse tumor at 100 mg/kg, po after 4 hrs; type: ADME, organism-based, Neoplasm; design: dose 100 mg/kg, route oral; conditions: read-out: Drug uptake
# [24] = Cmax in human LOX cells expressing B-Raf V600E mutant xenografted nude mouse at 25 mg/kg, po bid; type: ADME, organism-based; design: dose 25 mg/kg, route oral; conditions: in vivo
# [25] = Antitumor activity against human LOX cells expressing B-Raf V600E mutant xenografted in nude mouse assessed as tumor growth inhibition at 12.5 mg/kg, po bid; type: functional; conditions: read-out: GI
# Mus musculus [26] = assay: Inhibition of MEK-mediated ERK phosphorylation in tumor of human HT-29 cells expressing B-Raf V600E mutant xenografted nude mouse at 100 mg/kg, po after 12 hrs by Western blot analysis relative to control; type: functional; conditions: HT-29, 12 h
# [27] = Antitumor activity against human LOX cells expressing B-Raf V600E mutant xenografted in nude mouse assessed as tumor growth inhibition at 6.25 mg/kg, po bid; type: functional; conditions: read-out: GI
# [28] = Antitumor activity against human LOX cells expressing B-Raf V600E mutant xenografted in nude mouse assessed as tumor growth inhibition at 50 mg/kg, po bid; type: functional; conditions: read-out: GI
# NCI-H460 [29] = assay: Antitumor activity against human H460 cells expressing K-Ras Q61H mutant xenografted in nude mouse assessed as tumor growth inhibition at 25 mg/kg, po bid; type: functional; conditions: read-out: GI
# [30] = Cmax in human MIAPaCa2 cells expressing K-Ras G12C mutant xenografted nude mouse at 25 mg/kg, po bid; type: ADME, organism-based, MIA PaCa-2; design: dose 25 mg/kg, route oral; conditions: in vivo
# [31] = Plasma concentration in human HT-29 cells expressing B-Raf V600E mutant xenografted nude mouse at 50 mg/kg, po after 4 hrs; type: ADME, organism-based; design: dose 50 mg/kg, route oral
# [32] = Antitumor activity against human LOX cells expressing B-Raf V600E mutant xenografted in nude mouse assessed as tumor growth inhibition at 500 mg/kg, po administered weekly once; type: functional; conditions: read-out: GI
# [33] = molecular target: T1, Dual specificity mitogen-activated protein kinase kinase 1; assay: Inhibition of MEK1 in human LOX cells assessed as inhibition of ERK phosphorylation by Western blot analysis; type: cell-based
# Mus musculus [34] = assay: Average drug concentration in human H460 cells expressing K-Ras Q61H mutant xenografted nude mouse plasma at 50 mg/kg, po bid; type: ADME, organism-based; design: dose 50 mg/kg, route oral; conditions: in vivo
# [35] = molecular target: T1, Dual specificity mitogen-activated protein kinase kinase 1; assay: Inhibition of MEK1 in human MIA PaCa-2 cells assessed as inhibition of ERK phosphorylation by Western blot analysis; type: cell-based
# [36] = Drug level in human HT-29 cells expressing B-Raf V600E mutant xenografted nude mouse tumor at 100 mg/kg, po after 8 hrs; type: ADME, organism-based, Neoplasm; design: dose 100 mg/kg, route oral; conditions: read-out: Drug uptake
# [37] = AUC (0 to 12 hrs) in human HT-29 cells expressing B-Raf V600E mutant xenografted nude mouse at 25 mg/kg, po bid; type: ADME, organism-based; design: time < 12 hr, dose 25 mg/kg, route oral; conditions: in vivo
# [38] = Plasma concentration in human LOX cells expressing B-Raf V600E mutant xenografted nude mouse at 100 mg/kg, po after 4 hrs; type: ADME, organism-based; design: dose 100 mg/kg, route oral
# [39] = Drug level in human LOX cells expressing B-Raf V600E mutant xenografted nude mouse tumor at 100 mg/kg, po after 1 hr; type: ADME, organism-based, Neoplasm; design: dose 100 mg/kg, route oral; conditions: read-out: Drug uptake
# LOX = assay: Induction of apoptosis in human LOX cells; type: functional, cell-based
# MIA PaCa-2 [40] = assay: Antitumor activity against human MIAPaCa2 cells expressing K-Ras G12C mutant xenografted in nude mouse assessed as tumor growth inhibition at 50 mg/kg, po bid; type: functional; conditions: read-out: GI
# T1 sequence (Q02750 whole entry): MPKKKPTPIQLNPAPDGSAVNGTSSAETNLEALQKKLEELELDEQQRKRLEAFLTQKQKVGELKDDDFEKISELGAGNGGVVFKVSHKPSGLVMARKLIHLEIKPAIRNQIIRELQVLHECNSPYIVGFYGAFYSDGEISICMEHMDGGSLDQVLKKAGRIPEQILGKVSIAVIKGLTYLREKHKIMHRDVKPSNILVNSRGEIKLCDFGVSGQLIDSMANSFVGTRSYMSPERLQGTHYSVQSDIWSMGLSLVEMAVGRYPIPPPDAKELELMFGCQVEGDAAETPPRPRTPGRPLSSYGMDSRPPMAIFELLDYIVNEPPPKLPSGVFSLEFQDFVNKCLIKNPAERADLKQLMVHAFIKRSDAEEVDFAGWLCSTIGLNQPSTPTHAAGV
# T2 sequence (P36507 whole entry, looked up): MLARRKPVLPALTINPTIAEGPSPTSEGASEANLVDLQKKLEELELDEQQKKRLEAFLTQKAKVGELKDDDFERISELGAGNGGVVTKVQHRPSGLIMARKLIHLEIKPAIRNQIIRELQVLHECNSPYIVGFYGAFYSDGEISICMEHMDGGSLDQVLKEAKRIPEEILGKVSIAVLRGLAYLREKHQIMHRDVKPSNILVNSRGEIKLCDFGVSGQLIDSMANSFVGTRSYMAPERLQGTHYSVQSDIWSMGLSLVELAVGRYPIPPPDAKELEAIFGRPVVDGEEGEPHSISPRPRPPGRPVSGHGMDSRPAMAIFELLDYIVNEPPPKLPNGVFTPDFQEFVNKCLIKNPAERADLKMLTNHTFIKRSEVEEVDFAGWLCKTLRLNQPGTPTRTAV
# T2 sequence (Q02750 whole entry, looked up): as the sequence (Q02750 whole entry) above
smiles,measurement,setting,value
C[C@@H](c1ccccc1)[C@@H](C(=O)Nc1ccc(I)cc1F)N1C(=O)N[C@H](c2ccc(OC[C@H](O)CO)cc2)C1=O,Activity,Mus musculus [1],Non-toxic
same,Activity,HT-29 [2],Active
same,concentration at 12 h,[3],72 ng/mL
same,concentration at 8 h,[4],906 ng/g
same,IC50,[5],25 nM
same,AUC at 12 h,[6],10000 ng·h/mL
same,inhibition in vivo at 50 mg/kg,Mus musculus [7],81%
same,inhibition in vivo at 200 mg/kg,MIA PaCa-2 [8],97%
same,concentration at 2 h,[9],6300 ng/mL
same,AUC at 12 h,[10],8800 ng·h/mL
same,Activity,HT-29 [11],Active
same,EC50,Mus musculus [12],928 ng/g
same,Cmax,[13],1170 ng/mL
same,inhibition,[14],Active
same,IC50,MIA PaCa-2 [15],1250 nM
same,IC90,MIA PaCa-2 [15],5110 nM
same,Activity,[16],Active
same,IC50,[17],18 nM
same,IC90,[17],720 nM
same,inhibition in vivo at 500 mg/kg,NCI-H460 [18],48%
same,inhibition,[19],Active
same,Cave,Mus musculus [20],2725 ng/mL
same,concentration at 12 h,[21],318 ng/g
same,Activity,Mus musculus [22],Non-toxic
same,concentration at 4 h,[23],945 ng/g
same,Cmax,[24],3790 ng/mL
same,inhibition in vivo at 12.5 mg/kg,[25],99%
same,inhibition in vivo at 100 mg/kg,Mus musculus [26],0%
same,inhibition in vivo at 6.25 mg/kg,[27],61%
same,inhibition in vivo at 50 mg/kg,[28],> 100%
same,inhibition in vivo at 25 mg/kg,NCI-H460 [29],64%
same,Cmax,[30],3960 ng/mL
same,concentration at 4 h,[31],4030 ng/mL
same,inhibition in vivo at 500 mg/kg,[32],> 100%
same,IC50,[33],22 nM
same,Cave,Mus musculus [34],1942 ng/mL
same,IC50,[35],69 nM
same,concentration at 8 h,[36],293 ng/g
same,AUC at 12 h,[37],3780 ng·h/mL
same,concentration at 4 h,[38],4140 ng/mL
same,concentration at 1 h,[39],1030 ng/g
same,Activity,LOX,Active
same,inhibition in vivo at 50 mg/kg,MIA PaCa-2 [40],84%
